| Structure (SMILES) | melting point [°C] |
| --- | --- |
| O=C1CC[C@@H]2CCc3ccccc3[C@@H]2CN1Cc1ccccc1 (relative stereo) | 114 to 115 |
| CC(C)Oc1c(-c2ccc(S(N)(=O)=O)cc2)cnn(CC(F)(F)F)c1=O | 158 to 160 |
| COCOc1ccc(OC)c(-c2ccc(C[C@H](NC(=O)c3c(Cl)cccc3Cl)C(=O)O)cc2)c1OC | 156 to 157 |
| Cn1c(=O)[nH]c2cc(Cl)cc(Cl)c2c1=O | 247 to 250 |
| CCC(CC)c1nn(-c2ccc(Br)cn2)cc1CCCOc1c(CC(=O)O)cccc1OC | 94 to 95 |
| CNc1nc(Cl)nc2c1ncn2C1CC(F)C(CO)O1 (configuration not stated) | 181 to 182 |
| CCCCc1cn(Cc2ccc(-c3ccccc3C(=O)O)cc2)c2ccccc2c1=O | 214 |
| CCOC(=O)C(=O)Nc1ncccn1 | 96 to 99 |
| C=CCn1c(S)nc2c(cnn2C)c1=O | 171 to 174 |
| Cn1ccnc1N=Cc1ccccc1 | 71 to 72 |
| Cc1ccc(CC(C(N)=O)c2ccccc2)cc1 (configuration not stated) | 150 to 151 |
| CC(C)n1nc(-c2c(-c3ccccc3)nc(N)[nH]c2=O)ccc1=O | 291 to 295 |
| COc1ccc(Nc2nc(Cl)nc(Nc3ccc(OC)c(F)c3)n2)cc1F | 194 |
| O=C(c1ccc(F)cc1)c1ccc(C(=O)c2ccc(F)cc2)s1 | 186 |
| CC(=O)Nc1ccccc1N1CCc2ccccc21 | 125 to 128 |
| COc1cc2[nH]c(C)c(CCN3CCN(NC(=O)c4ccccc4)CC3)c2cc1OC | 128 to 131 |
| Cc1cccc(COc2ccc(C#N)cc2Cl)c1 | 73 to 75 |
| N#Cc1cc2c(nc1N1CCCCCC1)CCCC2=O | 76 to 78 |
| CNC(=O)N1N=C(c2ccc(N)c(C)c2)c2cc(Cl)ccc2C=C1C | 210 to 212 |
| c1ccc(OCCn2c(CC3CC3)nc3cnc4cc(-c5ccccc5)ccc4c32)cc1 | 175 to 176 |
| CC(C)(C)c1cc(N(C(=O)C=CC(=O)O)c2ccccc2)cc(C(C)(C)C)c1O | 154 to 157 |
| Cc1cccc(-c2[nH]c(C(C)C)nc2-c2ccc(F)c(-c3c[nH]cn3)c2)n1 | 268 to 270 |
| O=c1[nH]cc(Cl)c2ccc(CO)cc12 | 266 to 268 |
| CC(=O)ON=C(N)c1cccc(C(=O)N2CCN(C(=O)[C@@H]3CCCN3S(=O)(=O)c3ccc(Cl)c(COc4cccc5c(C)cc(C)nc45)c3Cl)CC2)c1 | 130 |
| CCOC(=O)c1sc(NC(=O)c2ccc(C#N)cc2)nc1C | 293 to 295 |
| CC(C)(C)n1ncc(Cl)c(NCCN2CCN(c3cccc4c3OCCO4)CC2)c1=O | 177 to 178 |

| Structure (SMILES) | melting point [°C] |
| --- | --- |
| CN(C1c2cc(O)ccc2OC(C)(C)C1O)S(C)(=O)=O (configuration not stated) | 204 to 206 |
| COC(=O)/C=C1\CCc2cc(C(C)(C)C)ccc21 | 116 to 118 |
| CC1=C(c2c[nH]c(-c3ccc(F)cc3)c2-c2ccncc2)CCN2CCC[C@@H]12 | 233 to 234 |
| COc1ccc2ncc(F)cc2c1 | 51 to 53 |
| CC12CC(C(F)F)C3C4CCC(=O)C=C4CCC3C1CCC2=O (configuration not stated) | 149 to 151 |
| CCCCCC(C)C(C)c1cc(OC)c2c(c1)OC(C)(C)C1=C2CN(C(=N)OC)CC1 (configuration not stated) | 134 to 136 |
| CCOC(=O)CCc1ccc(NC(=O)c2csc(NC(=O)NCc3ccccc3)n2)cc1 | 194 |
| COc1ccc(O)c2c1C1(CCC2)OCCO1 | 139 to 140 |
| NC(=O)CCN1CC(O)CC1=O (configuration not stated) | 99 to 100 |
| O=C(Nc1ccc2ccc(Oc3ccccc3)nc2n1)C1CC1 | 190 |
| CCC(CC)Oc1cc(C)nc(Oc2c(C)cc(C)cc2C)c1N | 96 to 98 |
| CCCCCC(=O)NC(=O)C(c1ccccc1)c1ccccc1 | 87 |
| Cc1cc(Oc2c(Cl)cc(C(F)(F)F)cc2Cl)nn1C(=S)NC(C)C | 92 to 94 |
| CCCNC(=O)c1nc(-c2ccccc2)c(-c2ccc(=O)[nH]n2)s1 | 232 to 233 |
| c1ccc(CSc2nnn[nH]2)cc1 | 98 to 100 |
| O=C1CCCN(C(=O)c2ccc([N+](=O)[O-])cc2)c2cccnc21 | 188 to 190 |
| C=CC(=O)NCC(=O)Nc1cc(Cl)c(C)c(Cl)c1O | 225 to 227 |
| O=c1c(Cl)c(Cl)cnn1-c1cc(-c2ccnc(Nc3cccc(Cl)c3)n2)ccn1 | 238 to 240 |
| Cc1cc(OCC2CO2)c2c3c(c(=O)oc2c1)CCCC3 (configuration not stated) | 164 to 165 |
| Cc1c(SCCCN2CCN(Cc3ccc(Cl)s3)CC2)ccnc1CSc1nc2cc(F)ccc2[nH]1 | 116 to 119 |
| CCOC(=O)N(c1cccc(C(F)(F)F)c1)c1ccccc1[N+](=O)[O-] | 45 to 48 |
| Cn1nnc2sccc2c1=O | 104 to 108 |
| O=c1n(CCCCCl)nc2n1-c1ccccc1OC2 | 56 to 57 |
| O=C(CCNC(=O)C(=Cc1ccccc1)CSC(=O)c1ccccc1)OCc1ccccc1 | 60 |
| O=C(O)CCN1C(=O)CSC1=S | 155 to 156 |
| O=C(Nc1ncc(Br)cn1)c1ccccc1SSc1ccccc1C(=O)Nc1ncc(Br)cn1 | 249 to 253 |

| Structure (SMILES) | melting point [°C] |
| --- | --- |
| CC(C)CON=Cc1ccc2c(c1)c1cc(-c3ccc(Cl)cc3Cl)c(=O)n(C)c1n2C | 100 to 110 |
| CNC1CCc2[nH]c3ccc(OCc4ccccc4)cc3c2C1 (configuration not stated) | 120 to 121 |
| Cc1cccc(C)c1NC(=O)N=C1CCC(C)N1C (configuration not stated) | 120 to 122 |
| CCn1c2ccccc2c2cc(C=Cc3ccc(N)cc3)ccc21 | 131 to 132 |
| OC(CNC1CCc2ccccc2C1)COc1ccc2ccccc2c1 (configuration not stated) | 102 to 115 |
| O=C(c1ccc2[nH]ccc2c1)N1CCN(CCc2ccc3nonc3c2)CC1 | 180 to 183 |
| CN(CCC(=O)Nc1ccc2[nH]ncc2c1)Cc1ccccc1 | 140 to 141 |
| O=C1c2ccccc2C(=O)c2c1c(Oc1ccc(CCCO)cc1)c1ccccc1c2Oc1ccc(CCCO)cc1 | 218 to 220 |
| CN(C)C(=O)C1(N2CCCC2)CCNCC1 | 150 |
| CCCCS(=O)(=O)Nc1ccc(Oc2cccc3c(C)ccnc23)cc1 | 208 to 209 |
| CCOC(=O)c1cn(C)c2nc3c(F)c(F)c(F)cc3cc2c1=O | 320 |
| COC(=O)[C@@H](NC(=O)c1ccc(C#Cc2ccc(C=O)cc2)cc1)[C@@H](C)O | 143 to 144 |
| CCOC(=O)N1CCN(c2nc(=O)c3cccnc3s2)CC1 | 139 to 140 |
| CCOc1ccc(-c2[nH]c(-c3ccc([N+](=O)[O-])cc3)nc2C(=O)O)cc1 | 148 to 152 |
| Cc1ccc(-c2ccccc2C(=O)NCc2ccc([N+](=O)[O-])cc2)cc1 | 153 to 154 |
| N#Cc1ccc2[nH]cc(C3=CCN(CC4COc5cccnc5O4)CC3)c2c1 (configuration not stated) | 165 |
| COC(=O)c1ccc(COc2ccc3cc(-c4ccc(-c5ccccc5)n4-c4ccccc4)ccc3c2)cc1 | 218 to 219 |
| C#Cc1cc(C)cc(C)c1-c1c(O)c(C)nn(C)c1=O | 179 to 181 |
| CCCCCNC(=O)N(CCCc1ccncc1)CCC12CC3CC(CC(C3)C1)C2 | 47 to 50 |
| NC(=O)c1sc2nccc(N3CCCN(c4ccccc4Cl)CC3)c2c1N | 206 to 210 |
| CCCCCCC(=N)NC(=S)Nc1ccc(Br)cc1 | 112 to 113 |
| CCOc1cc(-c2nnc3c4ccccc4c(OCc4cn(C)cn4)nn23)no1 | 189 to 190 |
| Cc1cc(-c2cc(C(F)(F)F)n3ncc(-c4ccncc4)c3n2)ccc1C(F)(F)F | 227 |
| COCc1ncccc1CN(CCn1ccc2oc(C)cc2c1=O)Cc1ccc2c(c1)N(C)C(=O)C(C)(C)C(=O)N2C1CC1 | 146 to 148 |
| Oc1ccccc1-c1ccccc1-c1cccc2[pH]c3ccccc3c12 (configuration not stated) | 152 to 155 |
| CC1(C)CC(S(=O)(=O)Cc2cc3c(cc2Cl)OCO3)=NO1 | 170 |

| Structure (SMILES) | melting point [°C] |
| --- | --- |
| O=C(O)c1ccc(O)c(I)c1 | 163 |
| CC(C)C(=O)N(CCCCCC(=O)O)C(c1ccccc1)c1ccccc1 | 106 to 107 |
| O=[N+]([O-])c1cccc2c3c(cc([N+](=O)[O-])c12)NCC3CCl (configuration not stated) | 206 to 207 |
| O=Nc1c(-c2ccc(Cl)cc2)nc2sc3ccccc3n12 | 203 to 206 |
| CCC(=O)c1ccc(SC)cc1 | 60 to 61 |
| O=C1CC2CCc3cc(O)ccc3C2=NN1c1ccccn1 (configuration not stated) | 193 to 194 |
| CC(NC(Nc1cccc(C#N)c1)=C(C#N)S(=O)(=O)c1ccc(Cl)cc1)C(C)(C)C (configuration not stated) | 80 to 82 |
| C#CCn1c(-c2ccccc2)nc(C(=O)N(C)C)c(C)c1=O | 137 to 140 |
| CCCc1nc(NC)n2ncc(C(=O)c3ccccc3Cl)c2n1 | 116 to 118 |
| CCOC(=O)C1=C(C)NC(C)=C(C(=O)OCC)C1c1csc2ccc([N+](=O)[O-])cc12 | 255 to 259 |
| CCOc1nc2c(C(=O)OC)sc(C)c2[nH]1 | 209 to 210 |
| NC(=O)c1ccccc1N1CCOCC1 | 112 to 119 |
| O=C1NCC=NN1c1cc(Cl)c(Cc2ccc(Cl)cc2)c(Cl)c1 | 199 to 200 |
| CO[C@@H]1CN(CCn2c(C)nc3ccccc3c2=O)CC[C@@H]1NC(=O)c1cc(Cl)c(N)c2c1OCC2 (relative stereo) | 275 |
| COc1ccc(-c2cc(=Nc3ccc(OCC(O)CNC(C)C)cc3)n(C)c(=O)n2C)cc1OC (configuration not stated) | 129 to 132 |
| CC(=O)Nc1cc(F)ccc1C | 127 to 128 |
| O=C(NCC12CC3CC(CC(C3)C1)C2)c1cc(Cl)ccc1Cl | 161 to 162 |
| CCOC(=O)c1cc(O)c2ccc3c(c2c1-c1cc(OC)c(OC)c(OC)c1)OCO3 | 151 to 152 |
| CCOC(=O)c1ccc(N2CCN(C(=O)CCc3cc(C(C)(C)C)c(O)c(C(C)(C)C)c3)CC2)cc1 | 85 to 86 |
| Cc1cc(C)cc(S(=O)c2c(C(C)C)nc(C)n2C)c1 (configuration not stated) | 100 to 101 |
| NS(=O)(=O)c1cc(C(=O)O)cc([N+](=O)[O-])c1NC1CCCCC1 | 185 to 186 |
| CCc1nnc2ccc(-c3ccccc3)nn12 | 133 to 135 |
| CCCCCN1C(=O)C(=O)c2ccccc21 | 50 to 51 |
| CCOC(=O)CC(C)NC(=O)c1ccc(N2CCN(c3ccncc3)CC2)cc1 (configuration not stated) | 130 to 132 |
